This is an account of results in US20240269120A1, “Method for Treating an Autoimmune and Inflammatory Disease” (Cellestia Biotech AG, priority 2021, published 2024).

Molecules are shown by their SMILES.

One experiment relates to IL-12a mRNA. Put plainly: Quantitative RT-PCR of splenocyte mRNA after in vivo dosing: IL-12a. More on the design: species or system mouse. The note with it: in vivo treated mice vs vehicle; p<0.01; FIG. 4. On the procedure: FIG. 4: In vivo 6-(4-tert-butylphenoxy)pyridin-3-amine dosing leads to a downregulation of pro-inflammatory cytokine IL-12a mRNA in mouse spleen. […] Each bar represents the mean±SD (N=3 replicates). (**) p<0.01
In vivo treatment of mice and pharmacodynamic response: Mice experiments were performed in compliance with authorization to perform animal experiments (VD3323). Briefly, 6-8 weeks old wild type C57Bl6 mice were subcutaneously or intraperitoneally dosed with vehicle or compounds for different durations. Mice were sacrificed, spleens were harvested 24 hours post-last dosing. Splenocytes were analyzed for cell surface and intracellular markers expression using flow cytometry. RNA expression analyses were performed using quantitative real time PCR.

A further experiment has as its system activated CD4 T cells. Put plainly: Cell proliferation assay (Cell trace violet), activated CD4 T cells. Type of experiment: cell-based. The settings on record: control 0%. On the procedure:
(§1) Following PBMC injections, mice were treated with vehicle or 6-(4-tert-butylphenoxy)pyridin-3-amine or Ruxolitinib starting at day 0. Mice were monitored from 60-85 days for symptoms of GvHD and scored according to a standard clinical scoring system for GvHD (Naserian et al., 2018) (see table 1) and a cumulative clinical score was obtained by addition of clinical score for individual parameters. A maximum score of 6 is measured when reaching endpoint. Cell proliferation assay: The effect of compounds on T cell proliferation was quantified using Cell trace violet (CTV). PBMCs/splenocytes were incubated with CTV for 20 minutes at 37° C. Cells were washed twice with RPMI complete medium. CTV labelled cells were stimulated with anti-CD3 and anti-CD28 antibodies and treated with control or compounds and cultured at 37° C. for 96 hours. The cell division index was measured by flow cytometry.
(§2) Flow cytometry analysis: Flow cytometry analysis was performed to quantify cell surface and intracellular markers expression and measure cell division index.

Another experiment relates to activated CD8 T cells. Put plainly: Cell proliferation assay (Cell trace violet), activated CD8 T cells. Type of experiment: cell-based. The settings on record: control 0%. On the procedure: as §1, §2
The subject of a further experiment is IL-6. Put plainly: ELISA of supernatant from activated human PBMC cultures: IL-6. The settings on record: control 0%. Type of experiment: cell-based. The method, then:
(§3) Human PBMCs and mouse splenocyte in vitro stimulation and treatment: Human peripheral blood mononuclear cells (PBMCs) and mouse splenocytes from donors were stimulated in vitro with anti-CD3 and anti-CD28 antibodies. The stimulated cells were simultaneously treated with compounds for 96 hours. The T cells were profiled for different cell surface and intracellular markers and proliferation by flow cytometry.
(§4) ELISA assay: Supernatant from activated human PBMC cultures described above was separated from cells at the end of culture time. Key cytokines (IL-6, IFN-γ, IL-17) were quantified using sandwich ELISA reagents set (Diaclone) following manufacturer's instruction manual.
In general terms: In an ELISA, binding on a coated surface is turned into a signal by an enzyme label.

Experiment [1] deals with IL-17. Put plainly: ELISA of supernatant from activated human PBMC cultures: IL-17. Type of experiment: cell-based. The settings on record: control 0%. On the procedure: as §3, §4
The test system of another experiment is IL-10. The experiment is described as follows: Cytokine profiling in human patient plasma (MSD): IL-10. The settings on record: vs baseline. Type of experiment: in vivo. On the procedure:
Cytokine profiling in human plasma samples: Plasma samples from patients treated with 6-(4-tert-butylphenoxy)pyridin-3-amine were collected and stored at −80° C. until analysed. Cytokine and chemokine profiling was performed using MesoScale Discovery (MSD) platform and three assay panels: 1) Pro-inflammatory panel human, 2) Human IL-6 assay S-Plex, 3) Human IL-10 assay S-Plex.

For experiment [2], the system named is NSG mice injected with human PBMCs (GvHD). Put plainly: Humanized GvHD mouse model, ex vivo pre-treated PBMCs plus in vivo treatment. The settings on record: sum of individual scores; label = ex vivo PBMC treatment/in vivo treatment; DMSO/Vehicle 7.8. On the procedure: Humanized GvHD mouse model: 6-8 weeks old NSG mice were intraperitoneally injected with 10 million human peripheral blood mononuclear cells (PBMCs) as below:
A cumulative GvHD clinical score was calculated by addition of scores for individual parameters (e.g. cumulative score=BWL+posture+activity+fur texture+skin integrity+paleness).
Ex-vivo pre-treatment of PBMCs and in-vivo treatment of mice: Human PBMCs were ex-vivo treated with either DMSO or 6-(4-tert-butylphenoxy)pyridin-3-amine and then intraperitoneally injected into NSG mice. Mice were in vivo treated with different compounds as below: • i. DMSO ex vivo hPBMCs treatment (7 hrs), plus vehicle in vivo treatment • ii. DMSO ex vivo hPBMCs treatment (7 hrs), plus 6-(4-tert-butylphenoxy)pyridin-3-amine in vivo treatment for 3 days • iii. 6-(4-tert-butylphenoxy)pyridin-3-amine ex vivo hPBMCs treatment (7 hrs), plus 6-(4-tert-butylphenoxy)pyridin-3-amine in vivo treatment for 3 days • iv. DMSO ex vivo PBMCs treatment (7 hrs) plus Ruxolitinib in vivo treatment for 3 days • v. 6-(4-tert-butylphenoxy)pyridin-3-amine ex vivo hPBMCs treatment (7 hrs), plus Ruxolitinib in vivo treatment for 3 days
as §1

The test system of experiment [3] is irradiated Balb/c mice transplanted with TCD-BM + splenocytes from C57Bl6 mice (GvHD). The experiment is described as follows: Allogeneic bone marrow transplant GvHD model. Type of experiment: in vivo, mouse. The method, then: (§5) Allogeneic Bone marrow transplant: Recipient Balb/c mice were irradiated twice 3.75Gy (T=0 and T=4 h) in an X-ray source irradiator before transplantation at T=8 h. Treatment with antibiotics (Nopil) and analgesic (Dafalgan) was supplemented to drinking water 4 days before injection. Irradiated recipient Balb/c mice were transplanted with 5 million T cell depleted bone marrow+1 million splenocytes. Allogeneic recipient animals were treated with vehicle or 6-(4-tert-butylphenoxy)pyridin-3-amine subcutaneously at 20 mg/kg for two days immediately after allo-BM transplant, given a 10 days treatment holiday to recover body weight loss due to whole body irradiation and then treatment continued at 20 mg/kg. […] Animals were monitored for symptoms of GvHD development (severe body weight loss, alopecia and diarrhea.
Graft vs host disease (GvHD) is an example of alloimmune disease that develops following allo-hematopoetic stem cell transplant (allo-HSCT) in humans. The activity of 6-(4-tert-butylphenoxy)pyridin-3-amine and a calcineurin inhibitor Cyclosprin A was investigated in a mouse model of GvHD following allo-bone marrow transplant. In this model, T cell depleted bone marrow cells (TCD-BM)+splenocytes from C57Bl6 mice were transplanted into irradiated Balb/c mice.

The subject of a further experiment is IFNG. The experiment is described as follows: Cytokine analysis in allogeneic bone marrow transplant (LEGENDplex): IFNG. Type of experiment: in vivo, mouse. The settings on record: allo-BM+splenocyte transplanted mice, day 36, vs vehicle; FIG. 6. The method, then:
as §5
(§6) Cytokine analysis in allogeneic Bone marrow transplant: The recipient animals were bled on day 36 and blood plasma was extracted to determine inflammatory cytokine concentration (IFNγ, IL-6, IL-17a) by LEGENDplex™ multiplexed assay.

Experiment [4] has as its system IL-17. The experiment is described as follows: Cytokine analysis in allogeneic bone marrow transplant (LEGENDplex): IL-17. The settings on record: allo-BM+splenocyte transplanted mice, day 36, vs vehicle; FIG. 6. Type of experiment: in vivo, mouse. The method, then: as §5, §6
Another experiment deals with regulatory T cells. Put plainly: Regulatory T cells in allo-BM + splenocyte transplanted mice. Type of experiment: in vivo, mouse. The method, then: as §5

Take `CC(C)(C)c1ccc(Oc2ccc(N)cn2)cc1` [6-(4-tert-butylphenoxy)pyridin-3-amine]: in the experiment with IL-12a mRNA, the “IL-12a transcript in splenocytes” value is “downregulation”. In addition, in the experiment on activated CD4 T cells, the “Percentage inhibition of CD4 T cells (proliferation)” value came out at 81%. Also, the “Percentage inhibition of CD8 T cells (proliferation)” value in the experiment on activated CD8 T cells turned out to be 56%. Also, in the experiment on IL-6, the “Percentage downregulation of IL-6” value was 61%. The “Percentage downregulation of IL-17” value in the experiment on IL-17 [1] was 38%. Besides, the “Percentage upregulation of IL-10 in blood plasma” value in the experiment on IL-10 came to 60%. Besides, the “Cumulative GvHD score” value in [2] was “decreased cumulative GvHD score significantly”. Further, the “prevention of GvHD development (in words)” value in experiment [3] (allo-bone marrow transplant, compared with vehicle) is on record as “prevents development of GvHD”. Besides, the “treated animals that developed GvHD” value in [3] (allo-bone marrow transplant, 60% of vehicle treated animals died due to GvHD, FIG. 5) is 20%. Moreover, the “animals remained GvHD free” value in experiment [3] (allogeneic bone marrow+splenocyte transplantation, vehicle 40%, FIG. 5) is on record as 80%. Also, the “IFNG in blood plasma” value in the experiment with IFNG was “downregulation”. The “IL-17 in blood plasma” value in the experiment on IL-17 [4] is recorded as “downregulation”. Besides, the “regulatory T cells” value in the experiment on regulatory T cells was “expansion of regulatory T cells”.
